Legend:
[1] = target: T1, androgen receptor (AR-LBD) (Rattus norvegicus, UniProt P15207); assay: Evaluation of androgen receptor affinity (PolarScreen Androgen Receptor Competitor Assay Kit, Red; fluorescence polarization); conditions: 22° C. for 5 hours, relative to binding rate of 1 μM DHT, read-out: AR affinity (pEC50) (converted)
T1 construct: 5 μL of 2×AR-LBD/Fluoromone AL Red Complex contained in the kit; purchased Invitrogen
T1 sequence (P15207 651-882 limits assumed): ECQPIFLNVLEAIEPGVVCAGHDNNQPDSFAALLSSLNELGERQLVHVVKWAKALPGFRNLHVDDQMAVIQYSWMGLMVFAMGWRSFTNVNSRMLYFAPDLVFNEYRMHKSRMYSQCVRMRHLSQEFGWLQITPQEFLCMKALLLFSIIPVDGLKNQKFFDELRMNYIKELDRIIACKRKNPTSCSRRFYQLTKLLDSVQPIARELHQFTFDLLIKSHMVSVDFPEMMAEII
Procedure, shortened: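 Test compound and the 2× AR-LBD/Fluoromone AL Red complex were combined in duplicate wells. After reacting 5 h at 22° C, polarization was measured. pEC50 was derived by 4-parameter fitting, normalizing to binding obtained with 1 μM dihydrotestosterone.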

human androgen receptor = target: T2, human androgen receptor (Homo sapiens, UniProt P10275); assay: Reporter assay of an androgen receptor responsive sequence (luciferase, transiently transfected HEK293 cells); type: cell-based; conditions: 24 hours incubation, relative to activity of 100 nM DHT, read-out: AR transcriptive activity (pEC50) (converted)
T2 construct: expressed in transfected cells; host or cells: HEK293
T2 sequence (P10275 1-920): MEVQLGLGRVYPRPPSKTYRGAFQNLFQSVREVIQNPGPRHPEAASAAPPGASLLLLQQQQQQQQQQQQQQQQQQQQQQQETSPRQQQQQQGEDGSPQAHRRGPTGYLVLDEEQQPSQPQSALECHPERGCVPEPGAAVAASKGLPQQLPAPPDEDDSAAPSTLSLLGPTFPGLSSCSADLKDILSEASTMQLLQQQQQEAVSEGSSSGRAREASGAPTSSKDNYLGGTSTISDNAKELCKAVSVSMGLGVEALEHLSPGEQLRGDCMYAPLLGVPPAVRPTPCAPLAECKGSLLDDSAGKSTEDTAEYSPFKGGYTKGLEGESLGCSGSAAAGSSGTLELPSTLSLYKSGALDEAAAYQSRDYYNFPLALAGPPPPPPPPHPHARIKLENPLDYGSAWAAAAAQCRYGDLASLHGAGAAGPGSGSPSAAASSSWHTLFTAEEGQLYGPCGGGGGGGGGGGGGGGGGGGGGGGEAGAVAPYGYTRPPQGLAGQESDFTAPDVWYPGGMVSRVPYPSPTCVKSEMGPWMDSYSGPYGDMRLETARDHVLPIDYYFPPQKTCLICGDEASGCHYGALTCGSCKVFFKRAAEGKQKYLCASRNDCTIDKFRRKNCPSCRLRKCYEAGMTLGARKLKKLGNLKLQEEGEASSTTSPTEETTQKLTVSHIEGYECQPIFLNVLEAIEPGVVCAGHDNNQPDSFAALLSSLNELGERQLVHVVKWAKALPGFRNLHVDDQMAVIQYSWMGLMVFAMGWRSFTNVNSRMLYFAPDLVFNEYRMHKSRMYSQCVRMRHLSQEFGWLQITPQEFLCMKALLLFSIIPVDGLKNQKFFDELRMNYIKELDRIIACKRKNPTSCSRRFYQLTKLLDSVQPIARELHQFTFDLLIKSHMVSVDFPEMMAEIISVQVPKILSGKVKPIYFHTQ
Procedure, shortened: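 Agonism scored as pEC50, fitted by 4-parameter curve against the response to 100 nM DHT, from dual-luciferase readout after 24 h compound treatment. Cells were HEK293 co-transfected (3 h) with human AR expression vector, androgen-responsive firefly reporter and Renilla control, in charcoal-stripped serum.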

Q: How did the EC50 [1] turn out when `CS(=O)(=O)NC(=O)c1nc(N(Cc2ccc(OC(F)F)cc2)c2ccc(C#N)cc2)sc1C1CC1` [Compound 662, 2-[4-cyano-N-[[4-(difluoromethoxy)phenyl]methyl]anilino]-5-cyclopropyl-N-methylsulfonyl-thiazole-4-carboxamide] was run?
A: Its EC50 is 20 nM.

Q: What about the EC50 (human androgen receptor) of the same molecule?
A: The EC50 was 5010 nM.

Q: Which EC50 [1] does the source give for `COCCCS(=O)(=O)NC(=O)c1nc(N(Cc2ccc(C(F)(F)F)nc2)c2ccc(C#N)cc2)sc1C1CC1` [Compound 663, 2-[4-cyano-N-[[6-(trifluoromethyl)-3-pyridyl]methyl]anilino]-5-cyclopropyl-N-(3-methoxypropylsulfonyl)thiazole-4-carboxamide] here?
A: Its EC50 is 251 nM.

Q: And the EC50 (human androgen receptor)?
A: Its EC50 is > 10000 nM.

Q: How did the EC50 [1] turn out when `COCCCS(=O)(=O)NC(=O)c1nc(N(Cc2ccccc2)c2ccc(C#N)cc2)sc1C1CC1` [Compound 664, 2-(N-benzyl-4-cyano-anilino)-5-cyclopropyl-N-(3-methoxypropylsulfonyl)thiazole-4-carboxamide] was run?
A: The EC50 was 158 nM.

Q: And the EC50 (human androgen receptor)?
A: The EC50 was > 10000 nM.

Q: Which results are given for `COCCCS(=O)(=O)NC(=O)c1nc(N(Cc2ccc(Cl)cc2)c2ccc(C#N)cc2)sc1C1CC1` [Compound 665, 2-[N-[(4-chlorophenyl)methyl]-4-cyano-anilino]-5-cyclopropyl-N-(3-methoxypropylsulfonyl)thiazole-4-carboxamide]?
A: EC50 [1]: 20 nM; EC50 (human androgen receptor): > 10000 nM

Q: Which results are given for `COCCCS(=O)(=O)NC(=O)c1nc(N(Cc2ccc(OC(F)F)cc2)c2ccc(C#N)cc2)sc1C1CC1` [Compound 666, 2-[4-cyano-N-[[4-(difluoromethoxy)phenyl]methyl]anilino]-5-cyclopropyl-N-(3-methoxypropylsulfonyl)thiazole-4-carboxamide]?
A: EC50 [1]: 39.8 nM; EC50 (human androgen receptor): > 10000 nM

Q: Which results are given for `Cc1sc(N(CCc2cccc(Cl)c2)Cc2ccccc2)nc1C(=O)NS(C)(=O)=O` [Compound 671, 2-[benzyl-[2-(3-chlorophenyl)ethyl]amino]-5-methyl-N-methylsulfonyl-thiazole-4-carboxamide]?
A: EC50 [1]: 50.1 nM; EC50 (human androgen receptor): 1580 nM

Q: For `Cc1sc(N(CCc2cccc(C#N)c2)Cc2ccccc2)nc1C(=O)NS(C)(=O)=O` [Compound 672, 2-[benzyl-[2-(3-cyanophenyl)ethyl]amino]-5-methyl-N-methylsulfonyl-thiazole-4-carboxamide], which EC50 [1] is on record?
A: The EC50 was 251 nM.

Q: And the EC50 (human androgen receptor)?
A: Its EC50 is 1260 nM.

Q: Which results are given for `Cc1sc(N(Cc2ccc(Cl)cc2)Cc2csc3cc(C(F)(F)F)ccc23)nc1C(=O)NS(C)(=O)=O` [Compound 677, 2-[(4-chlorophenyl)methyl-[[6-(trifluoromethyl)benzothiophen-3-yl]methyl]amino]-5-methyl-N-methylsulfonyl-thiazole-4-carboxamide]?
A: EC50 [1]: > 2000 nM; EC50 (human androgen receptor): > 10000 nM

Q: Which results are given for `COc1ccc(CCN(Cc2ccccc2)c2nc(C(=O)NS(C)(=O)=O)c(C)s2)cc1` [Compound 678, 2-[benzyl-[2-(4-methoxyphenyl)ethyl]amino]-5-methyl-N-methylsulfonyl-thiazole-4-carboxamide]?
A: EC50 [1]: 50.1 nM; EC50 (human androgen receptor): 1580 nM

Q: Which results are given for `Cc1sc(N(CCC2CCCC2)Cc2ccccc2)nc1C(=O)NS(C)(=O)=O` [Compound 683, 2-[benzyl(2-cyclopentylethyl)amino]-5-methyl-N-methylsulfonyl-thiazole-4-carboxamide]?
A: EC50 [1]: 100 nM; EC50 (human androgen receptor): > 10000 nM

Q: Which EC50 [1] does the source give for `Cc1sc(N(CCc2ccc(OC(F)(F)F)cc2)Cc2ccccc2)nc1C(=O)NS(C)(=O)=O` [Compound 684, 2-[benzyl-[2-[4-(trifluoromethoxy)phenyl]ethyl]amino]-5-methyl-N-methylsulfonyl-thiazole-4-carboxamide] here?
A: The EC50 was 39.8 nM.

Q: What about the EC50 (human androgen receptor) of the same molecule?
A: The EC50 was 251 nM.

Q: Which EC50 [1] does the source give for `Cc1sc(N(CCc2cccc(F)c2)Cc2ccccc2)nc1C(=O)NS(C)(=O)=O` [Compound 685, 2-[benzyl-[2-(3-fluorophenyl)ethyl]amino]-5-methyl-N-methylsulfonyl-thiazole-4-carboxamide] here?
A: Its EC50 is 50.1 nM.

Q: What about the EC50 (human androgen receptor) of the same molecule?
A: The EC50 was 316 nM.

Q: What does the source list for `Cc1sc(N(CCc2ccc(Cl)cc2)Cc2ccc(Cl)cc2)nc1C(=O)NS(C)(=O)=O` [Compound 692, 2-[2-(4-chlorophenyl)ethyl-[(4-chlorophenyl)methyl]amino]-5-methyl-N-methylsulfonyl-thiazole-4-carboxamide]?
A: EC50 [1]: 20 nM; EC50 (human androgen receptor): 79.4 nM

Q: For `CCS(=O)(=O)NC(=O)c1nc(N(CCc2ccc(Cl)cc2)Cc2ccc(Cl)cc2)sc1C` [Compound 693, 2-[2-(4-chlorophenyl)ethyl-[(4-chlorophenyl)methyl]amino]-N-ethylsulfonyl-5-methyl-thiazole-4-carboxamide], which EC50 [1] is on record?
A: The EC50 was 31.6 nM.

Q: And the EC50 (human androgen receptor)?
A: Its EC50 is 200 nM.

Q: With `Cc1sc(N(CCc2ccc(Cl)cc2)Cc2ccc(Cl)cc2)nc1C(=O)NS(=O)(=O)C1CC1` [Compound 694, 2-[2-(4-chlorophenyl)ethyl-[(4-chlorophenyl)methyl]amino]-N-cyclopropylsulfonyl-5-methyl-thiazole-4-carboxamide] as the molecule, how does the EC50 [1] read?
A: The EC50 was 63.1 nM.

Q: And the EC50 (human androgen receptor)?
A: Its EC50 is 3160 nM.

Q: Which results are given for `Cc1sc(N(CCc2ccc(Cl)cc2)Cc2ccc(Cl)cc2)nc1C(=O)NS(=O)(=O)Cc1cccnc1` [Compound 695, 2-[2-(4-chlorophenyl)ethyl-[(4-chlorophenyl)methyl]amino]-5-methyl-N-(3-pyridylmethylsulfonyl)thiazole-4-carboxamide]?
A: EC50 [1]: 25.1 nM; EC50 (human androgen receptor): 63.1 nM

Q: For `Cc1sc(N(CCc2ccc(Cl)cc2)Cc2ccc(Cl)cc2)nc1C(=O)NS(=O)(=O)C(F)(F)F` [Compound 696, 2-[2-(4-chlorophenyl)ethyl-[(4-chlorophenyl)methyl]amino]-5-methyl-N-(trifluoromethylsulfonyl)thiazole-4-carboxamide], which EC50 [1] is on record?
A: The EC50 was 200 nM.

Q: And the EC50 (human androgen receptor)?
A: The EC50 was 631 nM.

Q: `Cc1sc(N(CCc2ccc(Cl)cc2)CC2CCCCC2)nc1C(=O)NS(C)(=O)=O` [Compound 697, 2-[2-(4-chlorophenyl)ethyl-(cyclohexylmethyl)amino]-5-methyl-N-methylsulfonyl-thiazole-4-carboxamide] was tested. Which EC50 [1] did it give?
A: Its EC50 is 251 nM.

Q: What about the EC50 (human androgen receptor) of the same molecule?
A: The EC50 was > 10000 nM.

Q: Which results are given for `Cc1sc(N(CCc2ccc(Cl)cc2)CC2CCCCC2)nc1C(=O)NS(=O)(=O)Cc1cccnc1` [Compound 699, 2-[2-(4-chlorophenyl)ethyl-(cyclohexylmethyl)amino]-5-methyl-N-(3-pyridylmethylsulfonyl)thiazole-4-carboxamide]?
A: EC50 [1]: 63.1 nM; EC50 (human androgen receptor): > 10000 nM

Q: With `CCS(=O)(=O)NC(=O)c1nc(N(CCc2ccc(Cl)cc2)Cc2ccc(OC(F)(F)F)cc2)sc1C` [Compound 701, 2-[2-(4-chlorophenyl)ethyl-[[4-(trifluoromethoxy)phenyl]methyl]amino]-N-ethylsulfonyl-5-methyl-thiazole-4-carboxamide] as the molecule, how does the EC50 [1] read?
A: Its EC50 is 63.1 nM.

Q: And the EC50 (human androgen receptor)?
A: The EC50 was 1260 nM.

Q: How did the EC50 [1] turn out when `Cc1sc(N(CCc2ccc(Cl)cc2)Cc2ccc(OC(F)(F)F)cc2)nc1C(=O)NS(=O)(=O)C1CC1` [Compound 702, 2-[2-(4-chlorophenyl)ethyl-[[4-(trifluoromethoxy)phenyl]methyl]amino]-N-cyclopropylsulfonyl-5-methyl-thiazole-4-carboxamide] was run?
A: Its EC50 is 200 nM.

Q: And the EC50 (human androgen receptor)?
A: Its EC50 is > 10000 nM.

Q: Which results are given for `Cc1sc(N(CCc2ccc(Cl)cc2)Cc2ccc(OC(F)(F)F)cc2)nc1C(=O)NS(=O)(=O)Cc1cccnc1` [Compound 703, 2-[2-(4-chlorophenyl)ethyl-[[4-(trifluoromethoxy)phenyl]methyl]amino]-5-methyl-N-(3-pyridylmethylsulfonyl)thiazole-4-carboxamide]?
A: EC50 [1]: 31.6 nM; EC50 (human androgen receptor): 158 nM
